The text below walks through data of the supplement of paper PMC11061612.

Assay in all cases: Bliss excess, mean over the matrix (fraction); higher = more synergy
Assay [1] deals with KMS-12-BM (Plasma Cell Myeloma). The gist of the method: (§1)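 After 24 hours at 37°C and 5% CO2 in 1536-well plates, cells in DMEM/F12 or RPMI plus 10% FBS received two-drug dose matrices for 72 hours. Viability came from CellTiter-Glo 2.0 luminescence and was scaled as inhibition, anchored at 0 by vehicle wells and at 1 by blank wells. Combination Emax is taken as the second-highest inhibition in the matrix, and Bliss excess as the observed combination effect less EA + EB − EA·EB, with EA and EB the single-agent effects.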

The test system of assay [2] is ESO51 (Esophageal Adenocarcinoma). The gist of the method: as §1
Assay [3] has as its system 8505C (Thyroid Gland Carcinoma). A digest of the protocol: as §1
For assay [4], the system named is T-T (Esophageal Squamous Cell Carcinoma). A digest of the protocol:
as §1

Assay [5] relates to SK-GT-4 (Esophageal Adenocarcinoma). A digest of the protocol:
as §1

The test system of assay [6] is NCI-H3122 (Lung Adenocarcinoma). The gist of the method:
as §1

Assay [7] deals with SNU-398 (Hepatocellular Carcinoma). The gist of the method: as §1
The subject of assay [8] is NCI-H661 (Non-Small Cell Lung Carcinoma). A digest of the protocol:
as §1

A further assay has as its system RD (Rhabdomyosarcoma). A digest of the protocol: as §1
Assay [9] concerns VMRC-RCZ (Kidney Carcinoma). The gist of the method: as §1
In the next assay the test system is NCI-H2731 (Mesothelioma). The gist of the method:
as §1

For assay [10], the system named is RPMI-8226 (Plasma Cell Myeloma). The gist of the method: as §1
Assay [11] deals with DMS-114 (Small Cell Lung Carcinoma). The gist of the method: as §1
In assay [12] the test system is SU-DHL-5 (B-Cell Non-Hodgkin's Lymphoma). A digest of the protocol:
as §1

For assay [13], the system named is CW-2 (Colorectal Carcinoma). The gist of the method: as §1
The subject of assay [14] is KU812 (Chronic Myelogenous Leukemia). A digest of the protocol: as §1
The subject of assay [15] is COR-L279 (Small Cell Lung Carcinoma). A digest of the protocol: as §1
The test system of assay [16] is SK-GT-2 (Gastric Carcinoma). A digest of the protocol:
as §1

Assay [17] has as its system HCC1419 (Breast Carcinoma). The gist of the method:
as §1

The test system of assay [18] is NCI-H520 (Squamous Cell Lung Carcinoma). The gist of the method:
as §1

With `Cc1c2c(nn1C)CSCc1cc(n(C)n1)CSc1cc(c3ccccc3c1)OCCCc1c(C(=O)O)n(C)c3c-2c(Cl)ccc13` [AZD5991] + Cn1cnc2c(F)c(Nc3ccc(Br)cc3Cl)c(C(=O)NOCCO)cc21 [Selumetinib] (first compound max 1 µM, 7x7, partner max 3 µM), the Bliss excess is -0.0124 in assay [1]; 0.0896 in assay [2]; 0.0319 in assay [3]; 0.0289 in assay [4]; -0.0385 in assay [5]; -0.0255 in [6]. Moreover, the Bliss excess is 0.0354 in assay [7]; -0.0169 in assay [8]; 0.039 in the assay on RD (Rhabdomyosarcoma); -0.0777 in [9]; -0.0354 with NCI-H2731 (Mesothelioma); 0.0045 in assay [10]. Besides, the Bliss excess in assay [11] is -0.0317; in assay [12], 0.0221; in [13] it was 0.0226; in assay [14], 0.0224; in assay [15] it was -0.0172; in assay [16], 0.016. Further, the Bliss excess is 0.0366 in assay [17] and -0.0116 in [18].
On to `COc1cccc(OCCCN)c1-c1cc(Nc2cnc(C#N)cn2)n[nH]1` [Prexasertib] + Cc1cc2ncnn2cc1Nc1ncc2c(n1)n(C1CCOCC1)c(=O)n2C [AZD7648] (first compound max 1 µM, 7x7, partner max 10 µM), for which the Bliss excess in assay [1] was 0.0085; in assay [2], -0.0081; in assay [3] it was 0.0131; in [4], 0.0364; in assay [5] it was -0.088; in assay [6], 0.0055. Further, the Bliss excess was 0.0353 in assay [7]; -0.0543 in assay [8]; -0.0283 in the assay on RD (Rhabdomyosarcoma); -0.0074 in assay [9]; -0.0001 in the assay on NCI-H2731 (Mesothelioma); -0.0936 in [10]. For the same molecule, the Bliss excess in [11] is 0.0127; in assay [12], -0.0314; in assay [13] it was 0.043; in [14], -0.0891; in [15], 0.0225; in assay [16], -0.0454. Moreover, the Bliss excess is -0.0211 in assay [17] and 0.0278 in [18].
Regarding `COc1cccc(OCCCN)c1-c1cc(Nc2cnc(C#N)cn2)n[nH]1` [Prexasertib] + C[C@@H]1COCCN1C2=NC(=NC(=C2)C3(CC3)[S@](=N)(=O)C)C4=C5C=CNC5=NC=C4 [AZD6738] (first compound max 1 µM, 7x7, partner max 10 µM), the Bliss excess in assay [1] is -0.0071; in assay [2], -0.0632; in assay [3], -0.0075; in [4] it was 0.0178; in [5], -0.0233; in [6], 0.0704. Also, the Bliss excess is 0.026 in assay [7]; -0.0655 in [8]; 0.0085 in the assay with RD (Rhabdomyosarcoma); 0.0255 in assay [9]; -0.0089 in the assay with NCI-H2731 (Mesothelioma); -0.006 in [10]. In addition, the Bliss excess in assay [11] is 0.0485; in assay [12], -0.0147; in assay [13] it was 0.0785; in assay [14], -0.046; in [15], 0.0035; in assay [16], -0.0043. Moreover, the Bliss excess in assay [17] is -0.0473; in [18], -0.0481.
Regarding `Cc1cc2ncnn2cc1Nc1ncc2c(n1)n(C1CCOCC1)c(=O)n2C` [AZD7648] + CN(C)CCCOc1ccc(-c2ccc3ncc4c(c3c2)n(C2CCOCC2)c(=O)n4C)cn1 [AZD0156] (first compound max 10 µM, 7x7, partner max 1 µM), the Bliss excess in [1] is 0.0032; in assay [2] it was -0.0151; in [3], -0.0003; in assay [4], 0.0269; in assay [5], -0.0406; in [6], -0.006. For the same molecule, the Bliss excess in [7] is -0.0273; in assay [8], 0.0202; in the assay with RD (Rhabdomyosarcoma), -0.0142; in [9], -0.0314; in the assay on NCI-H2731 (Mesothelioma), -0.0326; in [10], 0.0171. Further, the Bliss excess in assay [11] is -0.0268; in assay [12], 0.0272; in assay [13] it was -0.0088; in [14] it was 0.0197; in assay [15] it was -0.0044; in assay [16] it was -0.0011. Besides, the Bliss excess in [17] is -0.0515; in [18] it was 0.0833.
Regarding `Cn1cnc2c(F)c(Nc3ccc(Br)cc3Cl)c(C(=O)NOCCO)cc21` [Selumetinib] + CC(C)n1c(=O)n(C)c2cnc3cc(F)c(-c4ccc(OCCCN5CCCCC5)nc4)cc3c21 [AZD1390] (first compound max 10 µM, 7x7, partner max 0.3 µM), the Bliss excess was 0.0032 in [1]; 0.0114 in [2]; -0.0717 in [3]; -0.0162 in assay [4]; 0.0162 in assay [5]; 0.0111 in assay [6]. Also, the Bliss excess in assay [7] was -0.053; in assay [8] it was -0.0559; in the assay on RD (Rhabdomyosarcoma) it was -0.0405; in assay [9], -0.0387; in the assay with NCI-H2731 (Mesothelioma), -0.0364; in assay [10] it was 0.0158. The Bliss excess in assay [11] was -0.0191; in assay [12] it was 0.0267; in assay [13] it was -0.0383; in assay [14] it was -0.0227; in assay [15], -0.0094; in [16], -0.0423. The values for the Bliss excess in assay [17] and in assay [18] were -0.0426 and -0.0486, respectively.
As for `CCN(CCO)CCCOc1ccc2c(Nc3cc(CC(=O)Nc4cccc(F)c4)[nH]n3)ncnc2c1` [AZD2811] + C[C@@H]1COCCN1C2=NC(=NC(=C2)C3(CC3)[S@](=N)(=O)C)C4=C5C=CNC5=NC=C4 [AZD6738] (first compound max 1 µM, 7x7, partner max 10 µM), the Bliss excess was 0.0141 in [1]; -0.0567 in assay [2]; -0.0514 in assay [3]; -0.0105 in assay [4]; -0.0183 in assay [5]; -0.063 in [6]. In addition, the Bliss excess was 0.007 in [7]; -0.0567 in assay [8]; -0.0325 in the assay with RD (Rhabdomyosarcoma); -0.085 in assay [9]; -0.0668 with NCI-H2731 (Mesothelioma); -0.0178 in assay [10]. Besides, the Bliss excess in [11] was -0.0301; in assay [12], -0.0382; in assay [13] it was -0.0116; in [14], -0.0764; in assay [15] it was 0.0322; in assay [16], -0.0272. For the same molecule, the Bliss excess in assay [17] is -0.0757; in assay [18] it was -0.0834.
With `CCN(CCO)CCCOc1ccc2c(Nc3cc(CC(=O)Nc4cccc(F)c4)[nH]n3)ncnc2c1` [AZD2811] + C=CCn1c(=O)c2cnc(Nc3ccc(N4CCN(C)CC4)cc3)nc2n1-c1cccc(C(C)(C)O)n1 [AZD1775] (first compound max 1 µM, partner max 1 µM), the Bliss excess is 0.122 in assay [1]; -0.0002 in [2]; -0.0071 in assay [3]; -0.037 in assay [4]; -0.0545 in assay [5]; -0.0512 in assay [6]. In addition, the Bliss excess in assay [7] was 0.0295; in assay [8], -0.0029; in the assay on RD (Rhabdomyosarcoma), -0.0222; in [9] it was -0.0512; with NCI-H2731 (Mesothelioma) it was 0.0089; in [10], -0.0172. The Bliss excess in assay [11] was -0.0129; in [12], -0.0309; in [13], -0.0169; in [14], -0.034; in assay [15], 0.0107; in [16] it was 0.0008. For the same molecule, the Bliss excess in assay [17] was -0.0545; in [18], -0.108.
